# From EP2380575B1, “Eslicarbazepine acetate and use” (Bial-Portela & CA, S.A., priority 2005, dated 2006)
# Where two headings read alike, the source gives them in different places.
# How the values were obtained:
# [1] = Study in epileptic patients: trough plasma concentrations of BIA 2-005; format: in vivo, humans
# From the text: This clinical trial was a double-blind, randomized, placebo-controlled study performed by 20 centers in Croatia, Czech Republic, Germany, Lithuania and Poland. The stated objectives of the study were to assess the efficacy and safety of BIA 2-093 as adjunctive therapy in patients with refractory partial epilepsy. In total, 143 patients aged 18-65 years with at least 4 partial-onset seizures per month in spite of treatment with 1 or 2 antiepileptic drugs (AEDs) (e.g., phenytoin, valproate, primidone, phenobarbital, lamotrigine, gabapentin, topiramate or clonazepam) were randomly assigned to one of three groups: treatment with placebo (n=47), BIA 2-093 once-daily (n=50), or BIA 2-093 twice-daily (n=46), during 12 weeks (plus 1 week of tapering off). For the first 4 weeks, daily dose was 400 mg. Then, daily doses were increased to 800 mg (weeks 5-8), and finally to 1200 mg (weeks 9-12). […] See, e.g., Almeida I and Almeida II.
# Plasma/serum samples for the "trough" (pre-dose) levels of BIA 2-005 and concomitant AEDs were collected at all visits but V5 (post-study visit). The objective was to characterize the influence of eslicarbazepine acetate on the pharmacokinetic behavior of the concomitant AEDs (e.g., phenytoin, valproate, primidone, phenobarbital, lamotrigine, gabapentin, topiramate, and clonazepam). […] Table 1: Trough plasma concentrations of BIA 2-005 following oral administration of eslicarbazepine acetate once-daily (o.d.) and twice-daily (b.i.d)
# [2] = test system: voltage-gated sodium channel (VGSC); settings: compared with carbamazepine; cited from earlier work
# [3] = test system: patients with refractory partial epilepsy; experiment: Study in epileptic patients: efficacy as adjunctive therapy; format: in vivo, humans; settings: for reduction in the number of seizures: versus baseline; for proportion of responders (50% or greater reduction in seizure frequency vs baseline): ITT
# Procedure: The effects of eslicarbazepine acetate in humans was studied in at least the following clinical studies. In the first study, a placebo-controlled therapeutic exploratory study, once-daily and twice-daily dosing was compared in epileptic patients refractory to standard anti-epileptic drug therapy. In the second study, healthy subjects received either a once-daily (o.d.) oral dose of 900 mg of eslicarbazepine acetate or a twice-daily (b.i.d.) dose of 450 mg of eslicarbazepine acetate. In the third study, healthy subjects received single oral doses of eslicarbazepine acetate ranging from 20 mg to 2400 mg, and repeated once-daily (o.d.) oral doses ranging from 400 mg to 2400 mg of eslicarbazepine acetate. This clinical trial was a double-blind, randomized, placebo-controlled study performed by 20 centers in Croatia, Czech Republic, Germany, Lithuania and Poland. The stated objectives of the study were to assess the efficacy and safety of BIA 2-093 as adjunctive therapy in patients with refractory partial epilepsy. […] For the first 4 weeks, daily dose was 400 mg. Then, daily doses were increased to 800 mg (weeks 5-8), and finally to 1200 mg (weeks 9-12). […] See, […] and Almeida II. The proportion of patients with a 50% or greater reduction in seizure frequency in the treatment period compared to the baseline period in the intention-to-treat (ITT) population (n=143) was the primary efficacy endpoint. […] The proportion of responders in the once-daily group (54%) was also higher than in the twice-daily (41%) group. […] At this dose level, no significant difference was found between the twice-daily and the placebo groups. Secondary endpoints include the reduction in total seizure frequency, proportion of seizure-free patients, distribution of responders, comparison of once and twice daily regimens, and investigator's and patient's global evaluation.
# [4] = Trial B: pharmacokinetics following single and repeated doses in healthy young male subjects; format: in vivo, humans; settings: in a minor extent to R-licarbazepine
# Procedure: The study integrated the results of three double-blind, randomized, placebo-controlled trials. To measure the pharmacokinetics of eslicarbazepine acetate following single doses, oral single doses of eslicarbazepine acetate ranging from 20 mg to 2400 mg were administered to healthy young male subjects (6 subjects per dose). The pharmacokinetics of eslicarbazepine acetate following repeated doses were measured by administering repeated oral doses ranging from 400 mg to 2400 mg of eslicarbazepine acetate to healthy young male subjects (6 subjects per dose) over a period of 8 days. Analytical test methods and experimental procedures were similar to those described for Trial A above.
# [5] = not given; remark: listed apart in the source
# [6] = Metabolic profile in liver microsomes, chiral analysis; format: in vitro ADME; settings: liver microsomes from rats, dogs, monkeys and humans, not the R(-) form
# [7] = after oral administration; below LOQ of the assay; cited from earlier work
compound,measurement,setting,value
NC(=O)N1c2ccccc2CC(O)c2ccccc21 (stereo not drawn) [BIA 2-005],extent of systemic exposure versus dose,"oral eslicarbazepine acetate, healthy subjects",approximately dose-proportional
same,total amount recovered in the urine,within 12 hours post-dose,about 20%
same,total amount recovered in the urine,within 24 hours post-dose,~40%
same,"Trough plasma concentration, Mean (sd)","[1]; 400 mg/day eslicarbazepine acetate, b.i.d. group",4.9(2.3) µg/mL
same,"Trough plasma concentration, Mean (sd)","[1]; 400 mg/day eslicarbazepine acetate, o.d. group",4.0 (3.2) µg/mL
same,"Trough plasma concentration, Mean (sd)","[1]; 800 mg/day eslicarbazepine acetate, b.i.d. group",13.5 (9.6) µg/mL
same,"Trough plasma concentration, Mean (sd)","[1]; 800 mg/day eslicarbazepine acetate, o.d. group",10.7(7.0) µg/mL
same,"Trough plasma concentration, Mean (sd)","[1]; 1200 mg/day eslicarbazepine acetate, b.i.d. group",15.5 (8.8) µg/mL
same,"Trough plasma concentration, Mean (sd)","[1]; 1200 mg/day eslicarbazepine acetate, o.d. group",14.6 (8.8) µg/mL
CC(=O)O[C@H]1Cc2ccccc2N(C(N)=O)c2ccccc21 [eslicarbazepine acetate],"affinity for the resting state of the channel, lower than that of carbamazepine",[2],about 3 fold
same,reduction in the number of seizures,[3]; 400 mg once-daily,38.9%
same,reduction in the number of seizures,[3]; 400 mg twice-daily,20.2%
same,reduction in the number of seizures,[3]; 800 mg once-daily,55.8%
same,reduction in the number of seizures,[3]; 800 mg twice-daily,38.1%
same,proportion of responders (50% or greater reduction in seizure frequency vs baseline),"[3]; 800 mg/day (weeks 5-8), once-daily group",58%
same,proportion of responders (50% or greater reduction in seizure frequency vs baseline),"[3]; 800 mg/day (weeks 5-8), twice-daily group",33%
same,reduction in the number of seizures,[3]; 1200 mg once-daily,59.5%
same,reduction in the number of seizures,[3]; 1200 mg twice-daily,47.5%
same,proportion of responders (50% or greater reduction in seizure frequency vs baseline),"[3]; 1200 mg/day (weeks 9-12), once-daily group",54%
same,proportion of responders (50% or greater reduction in seizure frequency vs baseline),"[3]; 1200 mg/day (weeks 9-12), twice-daily group",41%
same,patients seizure-free,"[3]; end of the 12-week treatment phase, once-daily group",27.9%
same,assessment of efficacy by the investigator (CGI - Clinical Global Impression) and of acceptability by patient,[3]; once-daily group compared with the other groups,rated best
same,metabolism of eslicarbazepine acetate,[4],extensively metabolized to eslicarbazepine
same,metabolism of eslicarbazepine acetate,[5]; in a minor extent to R-licarbazepine,extensively metabolized to eslicarbazepine
same,plasma concentrations of parent drug,[5]; limit of quantification 10 ng/mL,below the limit of quantification
same,metabolite formed in liver microsomes,[6],S(+) enantiomer of licarbazepine
same,plasma concentrations of the parent drug,[7],< 10 ng/mL
